In ChEMBL document CHEMBL5728971, “Small molecule inhibitors of lactate dehydrogenase and methods of use thereof” (2022):
“And” between values parts separate entries of the source, which are not always exact repeats. Equal entries are not always repeated.

assay: Biochemical Assay: Test compounds were placed in a Greiner Bio-One (Monroe, N.C.) 1536-well black solid bottom assay plate. 200 millimolar (mM) Tris HCl, pH 7.4, 100 micromolar (μM) EDTA and 0.01% TWEEN-20™, final concentration, was used as the assay buffer. The LDHA reagent was 2 nanomolar (nM) Human LDHA (Meridian Life Science, Inc., Memphis, Tenn.), final concentration, in assay buffer.

SMILES	IC50
O=C(O)c1csc(-n2nc(-c3ccccc3)cc2C(F)(F)F)n1	in the range around 29000 nM
O=C(O)c1csc(-n2nc(-c3ccccc3)cc2O)n1	> 57000 nM
NS(=O)(=O)c1ccc(Oc2c(-c3ccccc3)nn(-c3nc(C(=O)O)cs3)c2C2CC2)cc1	< 100 nM
N#Cc1c(Cc2ccc(S(N)(=O)=O)cc2)c(-c2ccccc2)nn1-c1nc(C(=O)O)cs1	< 100 nM
O=C(O)c1csc(-n2nc(-c3ccc(F)cc3F)cc2O)n1	> 57000 nM
NC(=O)c1ccc(Cc2c(-c3cccc(-c4ccccc4)c3)nn(-c3nc(C(=O)O)cs3)c2O)cc1	> 57000 nM
Cc1c(Cc2ccc(S(N)(=O)=O)cc2)c(-c2ccccc2)nn1-c1nc(C(=O)O)cs1	< 100 nM
NS(=O)(=O)c1ccc(Cc2cn(-c3nc(C(=O)O)cs3)nc2-c2ccc(F)c(F)c2)cc1	< 100 nM
CNS(=O)(=O)c1ccc(Cc2c(-c3cccc(-c4ccccc4)c3)nn(-c3nc(C(=O)O)cs3)c2O)cc1	> 57000 nM
NS(=O)(=O)c1ccc(NCc2cn(-c3nc(C(=O)O)cs3)nc2-c2ccccc2)cc1	> 57000 nM
NS(=O)(=O)c1ccc(Cc2cn(-c3nc(C(=O)O)cs3)nc2-c2ccccc2)cc1	< 100 nM
NS(=O)(=O)c1ccc(Cc2c(-c3ccccc3)nn(-c3nc(C(=O)O)cs3)c2-c2ccccc2)cc1	< 100 nM
O=C(O)c1csc(-n2nc(-c3cc(F)cc(F)c3)cc2O)n1	> 57000 nM
O=C(O)c1ccc(Cc2c(-c3cccc(-c4ccccc4)c3)nn(-c3nc(C(=O)O)cs3)c2O)cc1	> 57000 nM
NC(=O)c1csc(-n2nc(-c3cccc(-c4ccccc4)c3)c(Cc3ccc(S(N)(=O)=O)cc3)c2O)n1	> 57000 nM
NS(=O)(=O)c1ccc(Oc2cn(-c3nc(C(=O)O)cs3)nc2-c2ccccc2)cc1	< 100 nM
O=C(O)c1csc(-n2nc(-c3ccc(F)c(F)c3)c(Cc3ccccc3)c2O)n1	> 57000 nM
O=C(O)c1csc(-n2nc(-c3cccc(-c4ccccc4F)c3)cc2O)n1	> 57000 nM
COc1cccc(-c2cc(-c3nn(-c4nc(C(=O)O)cs4)c(C4CC4)c3Cc3ccc(S(N)(=O)=O)cc3F)ccc2F)c1	< 100 nM
NS(=O)(=O)c1ccc(Cc2c(-c3ccc(F)c(-c4cccc(F)c4)c3)nn(-c3nc(C(=O)O)cs3)c2C2CC2)c(F)c1	< 100 nM

SMILES	IC50
Cc1ccc(-c2cc(-c3nn(-c4nc(C(=O)O)cs4)c(C4CC4)c3Cc3ccc(S(N)(=O)=O)cc3F)ccc2F)cc1	< 100 nM
NS(=O)(=O)c1ccc(Cc2c(C3CCCC3)nn(-c3nc(C(=O)O)cs3)c2-c2ccccc2)cc1	in the range around 29000 nM
CCOC(=O)c1csc(-n2nc(-c3cccc(-c4ccccc4)c3)c(Cc3ccc(S(N)(=O)=O)cc3F)c2C2CC2)n1	> 57000 nM
COc1cccc(-c2cc(-c3nn(-c4nc(C(=O)O)cs4)c(C(F)(F)F)c3Cc3ccc(S(N)(=O)=O)cc3)ccc2F)c1	< 100 nM
NS(=O)(=O)c1ccc(Cc2cn(-c3nc(Br)cs3)nc2-c2ccccc2)cc1	in the range around 29000 nM
CCOC(=O)c1csc(-n2nc(-c3ccc(F)c(-c4ccc(F)cc4)c3)c(Cc3ccc(S(N)(=O)=O)c(F)c3)c2C2CC2)n1	in the range around 29000 nM
NS(=O)(=O)c1ccc(Cc2c(-c3ccc(F)c(-c4ccc(F)cc4)c3)nn(-c3nc(C(=O)O)cs3)c2C(F)(F)F)cc1	< 100 nM
Cc1ccc(-c2cc(-c3nn(-c4nc(C(=O)O)cs4)c(C(F)(F)F)c3Cc3ccc(S(N)(=O)=O)cc3)ccc2F)cc1	< 100 nM
Cc1noc(C)c1-c1cc(-c2c(Cc3ccc(S(N)(=O)=O)cc3F)c(CC3CC3)nn2-c2nc(C(=O)O)cs2)ccc1F	> 57000 nM
NS(=O)(=O)c1ccc(Cc2c(CC3CC3)nn(-c3nc(C(=O)O)cs3)c2-c2ccc(F)c(-c3cccc(F)c3)c2)cc1	in the range around 29000 nM
COc1cccc(-c2cc(-c3c(Cc4ccc(S(N)(=O)=O)cc4)c(CC4CC4)nn3-c3nc(C(=O)O)cs3)ccc2F)c1	> 57000 nM
CCOC(=O)c1csc(-n2nc(-c3ccc(F)c(-c4cccc(OC)c4)c3)c(Cc3ccc(S(N)(=O)=O)c(F)c3)c2C2CC2)n1	> 57000 nM
Cc1noc(C)c1-c1cc(-c2nn(-c3nc(C(=O)O)cs3)c(CC3CC3)c2Cc2ccc(S(N)(=O)=O)cc2F)ccc1F	< 100 nM
NS(=O)(=O)c1ccc(Cc2c(-c3ccc(F)c(-c4ccc(F)cc4)c3)nn(-c3nc(C(=O)O)cs3)c2C2CC2)cc1F	< 100 nM
CCOC(=O)c1csc(-n2nc(-c3ccc(F)c(-c4cccc(F)c4)c3)c(Cc3ccc(S(N)(=O)=O)c(F)c3)c2C2CC2)n1	in the range around 29000 nM
NS(=O)(=O)c1ccc(Cc2c(-c3ccc(F)c(-c4cccc(F)c4)c3)nn(-c3nc(C(=O)O)cs3)c2C(F)(F)F)cc1	< 100 nM
Cc1csc(-c2cc(-c3c(Cc4ccc(S(N)(=O)=O)cc4F)c(CC4CC4)nn3-c3nc(C(=O)O)cs3)ccc2F)c1	> 57000 nM
NS(=O)(=O)c1ccc(Cc2c(-c3ccc(F)c(-c4ccc(F)cc4)c3)nn(-c3nc(C(=O)O)cs3)c2C2CC2)c(F)c1	< 100 nM
CCOC(=O)c1csc(-n2nc(-c3ccc(F)c(-c4ccc(C)cc4)c3)c(Cc3ccc(S(N)(=O)=O)c(F)c3)c2C2CC2)n1	in the range around 29000 nM
Cc1ccc(-c2cc(-c3c(Cc4ccc(S(N)(=O)=O)cc4F)c(CC4CC4)nn3-c3nc(C(=O)O)cs3)ccc2F)s1	> 57000 nM

The next lines start with the values.

IC50	SMILES
< 100 nM	NS(=O)(=O)c1ccc(Cc2c(-c3ccc(F)c(C#CC4CCNCC4)c3)nn(-c3nc(C(=O)O)cs3)c2CC2CC2)cc1F
< 100 nM	NS(=O)(=O)c1ccc(Cc2c(-c3ccc(F)c(C#CC4CC4)c3)nn(-c3nc(C(=O)O)cs3)c2CC2CC2)cc1F
< 100 nM	NS(=O)(=O)c1ccc(Cc2c(-c3ccc(F)c(C#CC4CCCC4)c3)nn(-c3nc(C(=O)O)cs3)c2CC2CC2)cc1F
< 100 nM	CC#Cc1cccc(-c2nn(-c3nc(C(=O)O)cs3)c(CC3CC3)c2Cc2ccc(S(N)(=O)=O)c(F)c2)c1
< 100 nM	NS(=O)(=O)c1ccc(Cc2c(-c3ccc(F)c(-c4ccccc4)c3)nn(-c3nc(C(=O)O)cs3)c2CC2CC2)cc1
< 100 nM	NS(=O)(=O)c1ccc(Cc2c(-c3ccc(F)c(C#CCN4CCOCC4)c3)nn(-c3nc(C(=O)O)cs3)c2CC2CC2)cc1F
< 100 nM	CC(C)(O)C#Cc1cc(-c2nn(-c3nc(C(=O)O)cs3)c(CC3CC3)c2Cc2ccc(S(N)(=O)=O)c(F)c2)ccc1F
< 100 nM	COc1cccc(-c2cc(-c3nn(-c4nc(C(=O)O)cs4)c(C4CC4)c3Cc3ccc(S(N)(=O)=O)c(F)c3)ccc2F)c1
< 100 nM	Cc1csc(-c2cc(-c3nn(-c4nc(C(=O)O)cs4)c(CC4CC4)c3Cc3ccc(S(N)(=O)=O)c(F)c3)ccc2F)c1
> 57000 nM	CCOC(=O)c1csc(-n2nc(-c3ccc(F)c(C#CC4CCCC4)c3)c(Cc3ccc(S(N)(=O)=O)c(F)c3)c2CC2CC2)n1
< 100 nM	Cc1ccc(-c2cc(-c3nn(-c4nc(C(=O)O)cs4)c(CC4CC4)c3Cc3ccc(S(N)(=O)=O)c(F)c3)ccc2F)o1
< 100 nM	C=C(C)C#Cc1cc(-c2nn(-c3nc(C(=O)O)cs3)c(CC3CC3)c2Cc2ccc(S(N)(=O)=O)c(F)c2)ccc1F
< 100 nM	Cc1csc(-c2cc(-c3nn(-c4nc(C(=O)O)cs4)c(CC4CC4)c3Cc3ccc(S(N)(=O)=O)cc3F)ccc2F)c1
> 57000 nM	Cn1cc(-c2cc(-c3c(Cc4ccc(S(N)(=O)=O)c(F)c4)c(CC4CC4)nn3-c3nc(C(=O)O)cs3)ccc2F)cn1
< 100 nM	Cc1ccc(-c2cc(-c3nn(-c4nc(C(=O)O)cs4)c(CC4CC4)c3Cc3ccc(S(N)(=O)=O)c(F)c3)ccc2F)s1
< 100 nM	Cc1ccc(-c2cc(-c3nn(-c4nc(C(=O)O)cs4)c(CC4CC4)c3Cc3ccc(S(N)(=O)=O)cc3F)ccc2F)s1
< 100 nM	NS(=O)(=O)c1ccc(Cc2c(-c3cccc(N4CCOCC4)c3)nn(-c3ncc(C(=O)O)s3)c2CC2CC2)cc1F

IC50	SMILES
< 100 nM	NS(=O)(=O)c1ccc(Cc2c(-c3ccc(F)c(-c4cccs4)c3)nn(-c3nc(C(=O)O)cs3)c2CC2CC2)cc1F
< 100 nM	CN1CC=C(c2cc(-c3nn(-c4nc(C(=O)O)cs4)c(CC4CC4)c3Cc3ccc(S(N)(=O)=O)c(F)c3)ccc2F)CC1
< 100 nM	Cc1cnc(-c2cc(-c3nn(-c4nc(C(=O)O)cs4)c(CC4CC4)c3Cc3ccc(S(N)(=O)=O)c(F)c3)ccc2F)s1
> 57000 nM	Cc1noc(C)c1-c1cc(-c2c(Cc3ccc(S(N)(=O)=O)c(F)c3)c(CC3CC3)nn2-c2nc(C(=O)O)cs2)ccc1F
> 57000 nM	Cc1csc(-c2cc(-c3c(Cc4ccc(S(N)(=O)=O)c(F)c4)c(CC4CC4)nn3-c3nc(C(=O)O)cs3)ccc2F)c1
in the range around 29000 nM	CC#Cc1cccc(-c2nn(-c3nc(C(=O)OCC)cs3)c(CC3CC3)c2Cc2ccc(S(N)(=O)=O)c(F)c2)c1
< 100 nM	Cn1cc(-c2cc(-c3nn(-c4nc(C(=O)O)cs4)c(CC4CC4)c3Cc3ccc(S(N)(=O)=O)cc3F)ccc2F)cn1
< 100 nM	NS(=O)(=O)c1ccc(Cc2c(-c3ccc(F)c(-c4cccc(F)c4)c3)nn(-c3nc(C(=O)O)cs3)c2CC2CC2)cc1
< 100 nM	COc1cccc(-c2cc(-c3nn(-c4nc(C(=O)O)cs4)c(CC4CC4)c3Cc3ccc(S(N)(=O)=O)cc3)ccc2F)c1
< 100 nM	NS(=O)(=O)c1ccc(Cc2c(-c3ccc(F)c(-c4cccc(F)c4)c3)nn(-c3nc(C(=O)O)cs3)c2C2CC2)cc1F
< 100 nM	Cc1ccc(-c2cc(-c3nn(-c4nc(C(=O)O)cs4)c(C4CC4)c3Cc3ccc(S(N)(=O)=O)c(F)c3)ccc2F)cc1
< 100 nM	Cc1noc(C)c1-c1cc(-c2nn(-c3nc(C(=O)O)cs3)c(CC3CC3)c2Cc2ccc(S(N)(=O)=O)c(F)c2)ccc1F
< 100 nM	Cn1cc(-c2cc(-c3nn(-c4nc(C(=O)O)cs4)c(CC4CC4)c3Cc3ccc(S(N)(=O)=O)c(F)c3)ccc2F)cn1
> 57000 nM	CCOC(=O)c1csc(-n2nc(-c3ccc(F)c(-c4ccc(C)s4)c3)c(Cc3ccc(S(N)(=O)=O)c(F)c3)c2CC2CC2)n1
in the range around 29000 nM and > 57000 nM	CCOC(=O)c1csc(-n2nc(-c3cccc(-c4ccc(C)cc4)c3)c(Cc3ccc(S(N)(=O)=O)c(F)c3)c2CC2CC2)n1
< 100 nM	Cc1ncc(-c2cc(-c3nn(-c4nc(C(=O)O)cs4)c(CC4CC4)c3Cc3ccc(S(N)(=O)=O)c(F)c3)ccc2F)s1
> 57000 nM	Cc1ccc(-c2cc(-c3c(Cc4ccc(S(N)(=O)=O)c(F)c4)c(CC4CC4)nn3-c3nc(C(=O)O)cs3)ccc2F)s1
